{
  "source": "patent US20130030007A1",
  "about": "“Obesity Small Molecules” (AKRON MOLECULES GMBH, priority 2010, published 2013)",
  "origin": "cited, not measured here",
  "note": "Non-standard residues stand in square brackets, D forms with d. Residues, ends and D or L forms follow the SMILES beside them. pGlu = O=C1CC[C@@H](C(=O)O)N1; Thz = O=C(O)[C@@H]1CSCN1",
  "data": [
    {"tested_on": "human ortholog of Drosophila obesity gene", "parameters": "key: O: Obesity - obesity pathway interaction; B: validated binding partner", "conditions": "cited from earlier work", "values": [
      {"smiles": "CNC(=N)NCCC[C@H](N)C(=O)O", "note": "[omega-N-Methylarginine]", "Type: Type of interaction": "O"},
      {"smiles": "O=C(O)C(=O)O.[NH-][C@@H]1CCCC[C@H]1[NH-].[Pt+2]", "note": "[oxaliplatin]", "Type: Type of interaction": "O"},
      {"smiles": "CCCCC[C@H](O)/C=C/[C@H]1C=CC(=O)[C@@H]1CCCCCCC(=O)O", "note": "[prostaglandin A1]", "Type: Type of interaction": "O"},
      {"smiles": "CCCCC[C@H](O)/C=C/[C@H]1C(=O)C[C@H](O)[C@@H]1C/C=C\\CCCC(=O)O", "note": "[prostaglandin D2]", "Type: Type of interaction": "B"},
      {"smiles": "CCCCC[C@H](O)/C=C/[C@H]1[C@H](O)CC(=O)[C@@H]1CCCCCCC(=O)O", "note": "[prostaglandin E1]", "Type: Type of interaction": "O"},
      {"smiles": "CCCCC[C@H](O)/C=C/[C@@H]1[C@@H](C/C=C\\CCCC(=O)O)[C@@H](O)C[C@H]1O", "note": "[prostaglandin F2alpha]", "Type: Type of interaction": "O"},
      {"smiles": "CCCCC[C@H](O)/C=C/[C@@H]1[C@@H](C/C=C\\CCCC(=O)O)[C@@H]2C[C@H]1OO2", "note": "[prostaglandin H2]", "Type: Type of interaction": "O"},
      {"smiles": "COC(=O)C1=CC[C@@]23CC[C@@H]([C@@](C)(/C=C/C=C(\\C)C(=O)O)OC2=O)[C@@]3(OC(C)=O)CC1", "note": "[pseudolaric acid B]", "Type: Type of interaction": "O"}
    ]},
    {"tested_on": "human ortholog of Drosophila obesity gene", "parameters": "key: O: Obesity - obesity pathway interaction; B: validated binding partner", "conditions": "interaction of the small molecule with the human ortholog(s) / Drosophila gene(s) listed in the same table line; cited from earlier work", "values": [
      {"smiles": "O=C(N[C@H]1CCS[C@H]2CCC[C@@H](C(=O)O)N2C1=O)[C@@H](S)Cc1ccccc1", "note": "[omapatrilat]", "Type: Type of interaction": "O"},
      {"smiles": "COc1ccc2nc(S(=O)(=O)Cc3ncc(C)c(OC)c3C)[nH]c2c1", "note": "[omeprazole sulfone]", "Type: Type of interaction": "B"},
      {"smiles": "CO[C@@H]1C(=O)CC[C@]2(CO2)[C@@]1(O)[C@@]1(C)O[C@@H]1CC=C(C)C", "note": "[ovalicin]", "Type: Type of interaction": "B"},
      {"smiles": "O=c1[nH]c2ccccc2n1CCCN1CCN(C(c2ccccc2)c2ccccc2)CC1", "note": "[oxatomide]", "Type: Type of interaction": "B"},
      {"smiles": "NC(=O)N1c2ccccc2CC(=O)c2ccccc21", "note": "[oxcarbazepine]", "Type: Type of interaction": "O"},
      {"smiles": "O=C1CCC[C@@H]2[C@H]3CCC[N+]4([O-])CCC[C@@H](CN12)[C@@H]34", "note": "(some centres unmarked) [oxymatrine]", "Type: Type of interaction": "B"},
      {"smiles": "Nc1ccc(C(=O)NCC(=O)O)cc1", "note": "[p-Aminohippuric Acid]", "Type: Type of interaction": "B"},
      {"smiles": "NCCC(O)(P(=O)(O)O)P(=O)(O)O", "note": "[pamidronate]", "Type: Type of interaction": "B"},
      {"smiles": "CC1(C)CCC[C@](C)([C@H]2CC[C@]3(C)[C@@H]2[C@H](O)C[C@@H]2[C@@]4(C)CC[C@H](O)C(C)(C)[C@@H]4CC[C@]23C)O1", "note": "[panaxadiol]", "Type: Type of interaction": "B"},
      {"smiles": "c1ccc2c(c1)ccc1ccccc12", "note": "[phenanthrene]", "Type: Type of interaction": "O"},
      {"smiles": "COc1cc([C@@H]2c3cc4c(cc3[C@H](O)[C@H]3COC(=O)[C@@H]23)OCO4)cc(OC)c1OC", "note": "[picropodophyllin]", "Type: Type of interaction": "B"},
      {"smiles": "O=C1CC[C@@H](C(=O)N2CSC[C@H]2C(=O)O)N1", "note": "[pidotimod] ([pGlu]-[Thz]-OH)", "Type: Type of interaction": "O"},
      {"smiles": "CC1=CC(=O)c2c(O)cccc2C1=O", "note": "[plumbagin]", "Type: Type of interaction": "B"},
      {"smiles": "CC[C@@H]([C@H](C)O)n1ncn(-c2ccc(N3CCN(c4ccc(OC[C@@H]5CO[C@@](Cn6cncn6)(c6ccc(F)cc6F)C5)cc4)CC3)cc2)c1=O", "note": "[posaconazole]", "Type: Type of interaction": "B"},
      {"smiles": "CC(=O)O[C@@]12C[C@@H](C)[C@@]3(O)[C@@H](C=C(CO)C[C@]4(O)C(=O)C(C)=C[C@@H]34)[C@@H]1C2(C)C", "note": "[prostratin]", "Type: Type of interaction": "O"},
      {"smiles": "COCCCN1CCC(NC(=O)c2cc(Cl)c(N)c3c2OCC3)CC1", "note": "[prucalopride]", "Type: Type of interaction": "O"},
      {"smiles": "O=c1c(-c2ccc(O)cc2)coc2c([C@@H]3O[C@H](CO)[C@@H](O)[C@H](O)[C@H]3O)c(O)ccc12", "note": "[puerarin]", "Type: Type of interaction": "B"},
      {"smiles": "OCCOCCN1CCN(C2=Nc3ccccc3Sc3ccccc32)CC1", "note": "[quetiapine]", "Type: Type of interaction": "O"}
    ]}
  ]
}
